Laboratory results as given in patent publication US20070281028A1, “Drug Delivery of a Cox Inhibitor from Embolic Agents” (Biocompatibles Uk Limited, priority 2004, published 2007).
Several values for one entry are separate records, joined by “and”; a condition that tells them apart may be missing. Identical values can stand only once. Values belong to the compound of their own block, whether it stands above or below them.

Legend:
[1] = Loading (uptake) of drug into microspheres, from depletion of loading solution (UV/HPLC); type: physicochemical; details: for ketorolac loaded in microspheres: low AMPS 500-710 μm, loaded from water; for dose loaded per ml of hydrated microspheres: 5 ml of 100 mg/ml drug in ethanol added to 0.5 ml microspheres; for ketoprofen loaded/ml spheres, maximum loading: at 24 hours
Procedure: A solution of 100 mg/ml flurbiprofen (Sigma) in ethanol was prepared. […] Low AMPS and high AMPS microspheres of size 500-710 μm were used and drug uptake monitored by UV. The samples were agitated on a roller mixer. Aliquots of supernatant were taken at 10, 20, 30, 60 mins and then at 2 hr, out to 24 hr. Uptake was calculated from the flurbiprofen remaining in solution. […] Microspheres of the present invention of each size loaded with 200 mg/ml flurbiprofen were placed in 250 ml water at 37° C.
The samples were agitated on a roller mnixer.
5 ml of the solution was added to 0.5 ml of low AMPS microspheres, of size 500-710 μm, and uptake monitored by HPLC. The samples were agitated on a roller mixer. Aliquots of supernatant were taken at 5, 10, 20 40 and 60 mins and then 24 hr.
The samples were agitated on a roller mixer. Samples of the supernatant were taken at 10, 20, 40, 60 mins and 24 hrs. […] Elution experiments were carried out on these microspheres (table 1). Microspheres were washed to determine quick burst in various media as in table 1. Then samples were placed in 10 ml solvent and absorbance read after 10 mins, a further 20 ml added and absorbance read after 10 mins, this was repeated up to 90 mls and elution was monitored up to 24 hrs (table 1).
Once prepared, the absorbances of the solutions were read by UV at 263 nm and dilutions were made to produce a standard curve. […] The vials were placed on a roller mixer at room temperature for the entire experiment. At a predetermined time points (0, 10, 20, 30 and 60 min) 100 μl was removed, diluted as necessary (1/200) and read at 263 nm. From the readings and the standard curve, the concentration of the solution at each time point was calculated. The amount of drug loaded onto the beads was measured by the depletion of the drug in solution when extracted with the beads. From the data the mg drug loaded per 1 ml of hydrated beads were calculated and the graph plotted.
Five samples of 1 ml of hydrated beads Low AMPS 700 to 1100 μm were used. For each sample, 1 ml of beads in phosphate buffered saline (PBS), measured with a 10 ml—glass cylinder, was transferred to a glass container and all the PBS was carefully removed with a glass Pasteur pipette. […] Once prepared, the absorbances of the solution and dilutions were read by UV at 263 nm to produce a standard curve. […] The vials were placed on the roller mixer at room temperature for the entire experiment. At predetermined time points (0, 20, 40, 60 and 120 min) 100 μl was removed, diluted as necessary (1/200) and read at 263 nm. From the readings and the standard curve, the concentration of the solution at each time point was calculated. The amount of drug loaded onto the beads was measured by the depletion of the drug in solution. From the data the mg drug loaded per 1 ml of beads were calculated and the graph plotted (FIG. 12).
Six samples of 1 ml of beads (700-1100 μm) were used. For each sample, 1 ml of beads in phosphate buffered saline (PBS), measured with a 10 ml glass cylinder, was transferred to a glass container and all the PBS was carefully removed with a glass Pasteur pipette. […] Once prepared, the absorbances of the solution and dilutions of the aqueous and of the alcoholic solutions were read by UV at 263 nm to produce standard curves. […] The vial was placed on the roller mixer at room temperature for the entire experiment. Once loaded, the remaining solution was removed, measured in a graduated measurement cylinder and read at 263 nm.

[2] = Release (elution) of drug from loaded microspheres in vitro; type: physicochemical; details: for salicylic acid loaded that was released: 100 ml water, majority within the first 15 minutes
COX-2/COX-1 = details: 0 = equal potency; above 0 more selective to COX-1, below 0 more selective to COX-2; cited from earlier work
[3] = Plasma levels of ibuprofen after embolisation, intra-arterial or intravenous administration; type: in vivo; details: sheep, after intra-arterial administration (IA) of 50 mg solution in both left and right artery
HIF-2 alpha = details: COX-2 independent; cited from earlier work
HIF-1 alpha = details: COX-2 independent; cited from earlier work
[4] = tested on: colorectal cancer cell line; details: cited from earlier work
[5] = 10 ml water, 37° C., released in the first 5 minutes
[6] = high AMPS microspheres 500-710 μm
[7] = in less than 30 minutes, low and high AMPS microspheres, 100 mg/ml in ethanol
[8] = low AMPS microspheres 500-710 μm

time at which maximum loading is reached ([1]; loaded from ethanol 250 mg/ml, low AMPS beads 700-1100 μm, loading decreases afterwards): about 20 minutes
Compound: CC(C)Cc1ccc(C(C)C(=O)[O-])cc1.[Na+] (stereo not shown) [ibuprofen sodium salt]
loading levels, drug per ml of hydrated beads ([1]; range over six microsphere products, 2 ml of 100 mg/ml in water to 1 ml microspheres, 100 minute period): 67 to 142 mg of drug per ml of hydrated beads

drug released per ml of microspheres [2, 5]: 6-9 mg/ml of microspheres | loaded drug released from the microspheres [2, 5]: 17-25% | further release after transfer to fresh water ([2]; transfer to 10 ml fresh water after 17 hours, measured 7 hours more): did not bring about any further release | naproxen taken up per ml of spheres ([1]; low or high AMPS microspheres 500-710 μm, 30 mg/ml in ethanol, over 168 hours): 35-40 mg naproxen/ml of spheres
Compound: COc1ccc2cc([C@H](C)C(=O)O)ccc2c1 [Naproxen]

Elution rate (range) ([2]; low AMPS microspheres, elution up to 90 mls, up to 24 hrs, over experiments of table 1): 20%-43% | Elution rate, average in most experiments ([2]; low AMPS microspheres, up to 24 hrs): 25% | Eluted Drug ([2]; quick burst/wash out solvent 50% ethanol, elution solvent 50% ethanol, up to 24 hrs): 53 mg | Eluted Drug ([2]; quick burst/wash out solvent 100% ethanol, elution solvent 0.9% Saline (pH 12), up to 24 hrs): 60 mg | Eluted Drug ([2]; quick burst/wash out solvent 100% ethanol, elution solvent 50% ethanol, up to 24 hrs): 47 mg | quick burst ([2]; wash of loaded low AMPS microspheres in various media): approximately 15% | Eluted Drug ([2]; wash out and elution solvent 0.9% Saline (pH 12), 2 ml loading solution, up to 24 hrs, listed as Ibuprofen Free Acid): 47 mg and 83 mg and 57 mg | Eluted Drug ([2]; wash out and elution solvent 0.9% Saline (pH 12), 3 ml loading solution, up to 24 hrs): 77 mg | Cmax [3]: 32000 ng/mL | Loading mg/ml Bead ([1]; 3 ml loading solution (250 mg/ml in ethanol) to 1 ml low AMPS microspheres): 323.7 mg/ml Bead | time at which optimum loading is obtained ([1]; loaded from ethanol, low AMPS beads 700 to 1100 μm, contraction then expels drug solution): around 20 mins
Compound: CC(C)Cc1ccc(C(C)C(=O)O)cc1 (stereo not shown) [Ibuprofen]
HIF-2 alpha gene expression (HIF-2 alpha): inhibited | Loading mg/ml Bead ([1]; 2 ml loading solution (250 mg/ml in ethanol) to 1 ml low AMPS microspheres, listed as Ibuprofen Free Acid): 177.3 mg/ml Bead and 185.24 mg/ml Bead and 142.82 mg/ml Bead and 187.08 mg/ml Bead and 207.7 mg/ml Bead and 235.53 mg/ml Bead | doses loaded per ml of hydrated microspheres ([1]; low AMPS microspheres, 250 mg/ml in ethanol, range over series of experiments): 142-335 mg per ml of hydrated microspheres

salicylic acid loaded that was released ([2]; high AMPS microspheres, 37° C.): approximately 30% | salicylic acid loaded that was released ([2]; low AMPS microspheres, 37° C.): approximately 25% | further release after transferral into fresh water ([2]; transfer to 10 ml fresh water after 60 hours, measured 60 hours more): did not bring about any further release | maximum salicylic acid taken up per ml of microspheres ([1]; low or high AMPS 500-710 μm, 5 mg/ml in ethanol, after 3-4 hours): 3-4 mg salicylic acid/ml of microspheres | salicylic acid taken up per ml of microspheres ([1]; low or high AMPS 500-710 μm, 5 mg/ml in ethanol, after 24 hours): 2-3 mg/ml of microspheres
Compound: O=C(O)c1ccccc1O [salicylic acid]

released ([2]; high AMPS loaded microspheres (so in the source), first 5 minutes, 250 ml water at 37° C.): 43% | further slow release ([2]; high AMPS loaded microspheres (so in the source), further in the next 24 hrs): 4% | released ([2]; high AMPS loaded microspheres (so in the source), in 1 hrs, 250 ml water at 37° C.): 90% | released ([2]; low loaded microspheres, first 5 minutes, 250 ml water at 37° C.): 75% | further release ([2]; low loaded microspheres, further in next 24 hrs): 5% | released ([2]; low loaded microspheres, in 1 hr, 250 ml water at 37° C.): 90% | ketorolac loaded in microspheres ([1]; high loaded microspheres): 27 mg/mL | drug solution located in the microspheres ([1]; in less than 10 minutes, low AMPS microspheres 500-710 μm, 50 mg/ml and 10 mg/ml in water): 99% | ketorolac loaded in microspheres ([1]; low loaded microspheres): 13 mg/mL
Compound: O=C(c1ccccc1)c1ccc2n1CCC2C(=O)O (stereo not shown) [Ketorolac]
HIF-2 alpha gene expression (HIF-2 alpha): inhibited

time of maximum loading ([1]; low and high AMPS microspheres, 30 mg/ml in ethanol, monitored over 72 hours): 24 h
Compound: CC(C(=O)O)c1cccc(C(=O)c2ccccc2)c1 (stereo not shown) [Ketoprofen]
ketoprofen loaded/ml spheres, maximum loading ([1]; high AMPS microspheres 500-710 μm, 30 mg/ml in ethanol): approximately 10 mg ketoprofen loaded/ml spheres | ketoprofen loaded/ml spheres, maximum loading ([1]; low AMPS microspheres 500-710 μm, 30 mg/ml in ethanol): approximately 12 mg ketoprofen loaded/ml spheres

The remaining lines, values behind:

Compound: Cc1cc(CC(=O)O)n(C)c1C(=O)c1ccc(Cl)cc1 [Zomepirac]
Log [IC80 ratio WHMA COX-2/COX-1)] (COX-2/COX-1): 0

Compound: O=C(O)c1cccnc1Nc1cccc(C(F)(F)F)c1 [Niflumic Acid]
Log [IC80 ratio WHMA COX-2/COX-1)] (COX-2/COX-1): 0

Compound: CC(C(=O)O)c1ccc(-c2ccccc2)c(F)c1 (stereo not shown) [Flurbiprofen]
further release ([2]; further in 2 days, microspheres loaded with 200 mg/ml, 250 ml water at 37° C.): 5% | release ([2]; in first 10 minutes, microspheres loaded with 200 mg/ml, 250 ml water at 37° C.): 30% | dose loaded per ml of hydrated microspheres [1, 6]: 197 mg per ml of hydrated microsph | drug solution located in the microspheres [1, 7]: 99% | dose loaded per ml of hydrated microspheres [1, 8]: 195 mg per ml of hydrated microsph

Compound: O=C(O)Cc1ccccc1Nc1c(Cl)cccc1Cl [Diclofenac]
further release ([2]; further in 48 hrs, microspheres loaded with 26 and 30 mg/ml, 250 ml water at 37° C.): 35% | release ([2]; in first 5 minutes, microspheres loaded with 26 and 30 mg/ml, 250 ml water at 37° C.): 18-26% | HIF-1 alpha gene expression (HIF-1 alpha): inhibited | HIF-2 alpha gene expression (HIF-2 alpha): inhibited | dose loaded per ml of hydrated microspheres [1, 6]: 30 mg per ml of hydrated microsph | drug solution located in the microspheres [1, 7]: 99% | dose loaded per ml of hydrated microspheres [1, 8]: 26 mg per ml of hydrated microsph

Compound: CC(C(=O)O)c1cccc(Oc2ccccc2)c1 (stereo not shown) [Fenoprofen]
Log [IC80 ratio WHMA COX-2/COX-1)] (COX-2/COX-1): 0

Compound: CS(=O)(=O)Nc1ccc([N+](=O)[O-])cc1OC1CCCCC1 [NS398]
HIF-2 alpha gene expression (HIF-2 alpha): inhibition | expression of pro-angiogenic factors, including VEGF [4]: diminished
